One series deals with P. falciparum 3D7. The series is described as follows: In vitro anti-malarial activity, SYBR-Green I fluorescence assay, strain 3D7. Type of series: cell-based. The conditions noted are these: Plasmodium falciparum, 3D7, Erythrocyte, 72 h, read-out: Inhibition IC50 mean ± SD. The protocol: (§1) In the in vitro anti-malarial bioassay, strains of P. falciparum (chloroquine sensitive 3D7 and multidrug resistant Dd2) were kept in continuous culture in human erythrocytes in RPMI 1640 medium supplemented with 0.5% Albumax I/II and […] hypoxanthine according to the method previously described by Trager and Jensen. Synchronization of parasites was conducted using sorbitol treatment and parasitaemia was microscopically determined in Giemsa-stained smears.
(§2) In vitro anti-malarial activity assay was performed as previously described. Chloroquine and artemisinin were used as standard anti-malarial drugs, and equivalent free DQ used as a control and dissolved in dimethylsulfoxide (DMSO). Liposomes were diluted into a series of 10 µl different DQ concentrations for the in vitro assay. Each sample (10 µl) was mixed with 90 µl culture medium containing P. falciparum (0.5% parasitaemia and 2% haematocrit) and placed in 96-well microplates, which were incubated for 72 h with 5% CO2 at 37 °C. Lysis buffer (100 µl) containing 0.2 µl SYBR- Green I was then added to each well of the plate and incubated for additional 1.5 h at 37 °C. Fluorescence signal was detected at 488 nm (excitation) and 520 nm (emission) in a microplate reader (Synerfy H1, Bio Tek, USA). The intensity of fluorescence generated by the binding of SYBR-Green I to Plasmodium DNA is relative to the growth of parasites. IC50 values were derived from dose–response curves evaluated with software GraphPad.

In another series the test system is P. falciparum Dd2. The series is described as follows: In vitro anti-malarial activity, SYBR-Green I fluorescence assay, strain Dd2. Type of series: cell-based. As to conditions: Plasmodium falciparum, DD2, Erythrocyte, 72 h, read-out: Inhibition IC50 mean ± SD. The protocol:
as §1, §2

On the set-up of series [1]: method as in PMID 21914160. As to conditions: cited from earlier work.
The next series has as its system Plasmodium parasites. Also on record: method as in PMID 28491482. The conditions noted are these: cited from earlier work.
Setting [2] is: infected human red blood cells, DQ concentration for liposomes.

In brackets after ≈: the same amount, converted by molar mass. Where two headings read alike, the source gives them in different places.

What is called IC50 is the midpoint of a concentration-inhibition curve. By half-life is commonly meant how long it takes for the measured level to halve.

In the case of `C[C@@H]1CC[C@H]2[C@@H](C)C(=O)O[C@@H]3O[C@@]4(C)CC[C@@H]1[C@]32OO4` [Artemisinin], the IC50 came out at 16.4 ± 5.8 nM in the series on P. falciparum 3D7 (setting [2]) and 18.5 ± 0.5 nM in the series with P. falciparum Dd2 (setting [2]). In the case of `CCN(CC)CCCC(C)Nc1ccnc2cc(Cl)ccc12` (stereo not drawn) [Chloroquine], the values for the IC50 with P. falciparum 3D7 and in the series on P. falciparum Dd2 were 23.75 ± 0.06 nM and 185 ± 16.2 nM, respectively. As for `C[C@H]1[C@@H](O)O[C@@H]2O[C@@]3(C)CC[C@H]4[C@H](C)CC[C@@H]1[C@@]24OO3` [DHA, dihydro-artemisinin], the half-life in series [1] (DHA formed from intravenous artesunate) was 30 to 60 min.

Take `CCCCCCCCCCOc1cc2c(O)c(C(=O)OCC)cnc2cc1OCC` [DQ in DMSO, Decoquinate]: the figures for the IC50 in the series with P. falciparum 3D7 (setting [2]) and in the series on P. falciparum Dd2 (setting [2]) were 1.63 ± 0.13 nM and 1.57 ± 0.49 nM, respectively. The “minimum inhibitory concentration (MIC)” value in the series with Plasmodium parasites is 5.12 ng/mL (≈ 0.0123 µM). Take `C[C@H]1[C@H](OC(=O)CCC(=O)O)O[C@@H]2O[C@@]3(C)CC[C@H]4[C@H](C)CC[C@@H]1[C@@]24OO3` [artesunate]: the half-life entry in series [1] (intravenous artesunate, parent AS) was “less than 15 min”.

Source of the values: PMC8785525 (Malaria Journal, 2022).
